Source: US11999716B2, “WDR5 inhibitors and modulators” (priority 2018, dated 2024)

Tested on: MV4:11 human cancer cell lines
Assay: Cellular viability / anti-proliferative activity, CellTiter-Glo, 5 day protocol
Format: cell-based
Conditions: Homo sapiens, MV4-11, 120 h, MV4:11 cells; 5 day incubation; CellTiter-Glo; mean of minimum two replicates; read-out: GI50 on cellular proliferation of MV4:11 human cancer cell lines
Procedure, shortened: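 Compounds were tested over 22 two-fold dilutions starting at 30 μM in 0.3% DMSO, with 200 cells per well (7200 cells/mL). Viability was measured by CellTiter-Glo luminescence at day 5.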

Compound | GI50 [nM]
Cc1cc([C@H](C)N2CCc3c(cc(Cn4ccnc4C)cc3-c3cn(C)nc3C(F)(F)F)C2=O)ccc1F [Example 24, (S)-2-(1-(4-Fluoro-3-methylphenyl)ethyl)-7-((2-methyl-1H-imidazol-1-yl)methyl)-5-(1-methyl-3-(trifluoromethyl)-1H-pyrazol-4-yl)-3,4-dihydroisoquinolin-1(2H)-one] | < 50
CCc1nccn1Cc1cc2c(c(-c3cn(C)nc3C(F)(F)F)c1)CCN([C@@H](C)c1cc(C)cc(C)n1)C2=O [Example 164, (S)-2-(1-(4,6-Dimethylpyridin-2-yl)ethyl)-7-((2-ethyl-1H-imidazol-1-yl)methyl)-5-(1-methyl-3-(trifluoromethyl)-1H-pyrazol-4-yl)-3,4-dihydroisoquinolin-1(2H)-one] | 57
CCn1cc(-c2cc(Cn3ccoc3=N)cc3c2CCN([C@@H](C)c2cc(OC)ccn2)C3=O)c(C(F)(F)F)n1 [Example 91, (S)-5-(1-Ethyl-3-(trifluoromethyl)-1H-pyrazol-4-yl)-7-((2-iminooxazol-3(2H)-yl)methyl)-2-(1-(4-methoxypyridin-2-yl)ethyl)-3,4-dihydroisoquinolin-1(2H)-one] | < 50
Cc1cc(CN2CCc3c(cc(Cn4ccnc4C)cc3-c3ccccc3)C2=O)ccc1Cl [Example 5, 2-(4-Chloro-3-methylbenzyl)-7-((2-methyl-1H-imidazol-1-yl)methyl)-5-phenyl-3,4-dihydroisoquinolin-1(2H)-one] | > 938
CCc1ccnc([C@H](C)N2CCc3c(cc(Cn4ccnc4)cc3-c3cn(C)nc3C(F)(F)F)C2=O)c1 [Example 191, (S)-7-((1H-Imidazol-1-yl)methyl)-2-(1-(4-ethylpyridin-2-yl)ethyl)-5-(1-methyl-3-(trifluoromethyl)-1H-pyrazol-4-yl)-3,4-dihydroisoquinolin-1(2H)-one] | < 50
COc1cc(CN2CCc3c(cc(CN4CCOC4=N)cc3-c3cccnc3C(F)(F)F)C2=O)cc(OC)c1 [Example 82, 2-(3,5-Dimethoxybenzyl)-7-((2-iminooxazolidin-3-yl)methyl)-5-(2-(trifluoromethyl)pyridin-3-yl)-3,4-dihydroisoquinolin-1(2H)-one] | 55
CCn1cc(CN2CCc3c(cc(Cn4ccoc4=N)cc3-c3cn(CC)nc3C(F)(F)F)C2=O)nn1 [Example 96, 2-((1-Ethyl-1H-1,2,3-triazol-4-yl)methyl)-5-(1-ethyl-3-(trifluoromethyl)-1H-pyrazol-4-yl)-7-((2-iminooxazol-3(2H)-yl)methyl)-3,4-dihydroisoquinolin-1(2H)-one] | < 50
Cc1nnc(CN2CCc3c(cc(Cn4ccnc4C)cc3-c3cn(C)nc3C(F)(F)F)C2=O)s1 [Example 174, 2-((5-Methyl-1,3,4-thiadiazol-2-yl)methyl)-7-((2-methyl-1H-imidazol-1-yl)methyl)-5-(1-methyl-3-(trifluoromethyl)-1H-pyrazol-4-yl)-3,4-dihydroisoquinolin-1(2H)-one] | 329
COc1cc(CN2CCc3c(OCC(F)(F)F)cc(Cn4ccn(C)c4=N)cc3C2=O)cc(OC)c1 [Example 73, 2-(3,5-Dimethoxybenzyl)-7-((2-imino-3-methyl-2,3-dihydro-1H-imidazol-1-yl)methyl)-5-(2,2,2-trifluoroethoxy)-3,4-dihydroisoquinolin-1(2H)-one] | > 938
Cc1nccn1Cc1cc2c(c(-c3cn(C)nc3C(F)(F)F)c1)CCN(CC1CCC(=O)N(C)C1)C2=O (stereo not drawn) [Example 172, 7-((2-Methyl-1H-imidazol-1-yl)methyl)-5-(1-methyl-3-(trifluoromethyl)-1H-pyrazol-4-yl)-2-((1-methyl-6-oxopiperidin-3-yl)methyl)-3,4-dihydroisoquinolin-1(2H)-one] | 221
COc1cc(CN2CCc3cc(F)c(CNC4=NCCN4)cc3C2=O)cc(OC)c1 [Example 133, 7-(((4,5-Dihydro-1H-imidazol-2-yl)amino)methyl)-2-(3,5-dimethoxybenzyl)-6-fluoro-3,4-dihydroisoquinolin-1(2H)-one] | 173
Cc1cnc(CN2CCc3c(cc(Cn4ccnc4C)cc3-c3cn(C)nc3C(F)(F)F)C2=O)s1 [Example 195, 7-((2-Methyl-1H-imidazol-1-yl)methyl)-5-(1-methyl-3-(trifluoromethyl)-1H-pyrazol-4-yl)-2-((5-methylthiazol-2-yl)methyl)-3,4-dihydroisoquinolin-1(2H)-one] | 217
CCn1cc(-c2cc(CN3CCOC3=N)cc3c2CCN(Cc2cc(OC)ccn2)C3=O)cn1 [Example 86, 5-(1-Ethyl-1H-pyrazol-4-yl)-7-((2-iminooxazolidin-3-yl)methyl)-2-((4-methoxypyridin-2-yl)methyl)-3,4-dihydroisoquinolin-1(2H)-one] | 740
COc1cc(CN2CCc3c(cc(Cn4cnn(C)c4=N)cc3-c3cn(C)nc3C(F)(F)F)C2=O)cc(OC)c1 [Example 122, 2-(3,5-Dimethoxybenzyl)-7-((5-imino-1-methyl-1,5-dihydro-4H-1,2,4-triazol-4-yl)methyl)-5-(1-methyl-3-(trifluoromethyl)-1H-pyrazol-4-yl)-3,4-dihydroisoquinolin-1(2H)-one] | < 50
Cc1ccnc([C@H](C2CC2)N2CCc3c(cc(Cn4ccnc4C)cc3-c3ccc(F)cc3C)C2=O)c1 [Example 12, (S)-2-(Cyclopropyl(4-methylpyridin-2-yl)methyl)-5-(4-fluoro-2-methylphenyl)-7-((2-methyl-1H-imidazol-1-yl)methyl)-3,4-dihydroisoquinolin-1(2H)-one] | 69
CCn1cc(-c2cc(Cn3ccnc3C)cc3c2CCN([C@H](c2cc(C)ccn2)C2CC2)C3=O)c(C(F)(F)F)n1 [Example 177, (S)-2-(Cyclopropyl(4-methylpyridin-2-yl)methyl)-5-(1-ethyl-3-(trifluoromethyl)-1H-pyrazol-4-yl)-7-((2-methyl-1H-imidazol-1-yl)methyl)-3,4-dihydroisoquinolin-1(2H)-one] | < 50
COc1cc(CN2CCc3c(cc(Cn4ccn(C)c4=N)cc3-c3c(C)nn(C)c3C)C2=O)cc(OC)c1 [Example 64, 2-(3,5-Dimethoxybenzyl)-7-((2-imino-3-methyl-2,3-dihydro-1H-imidazol-1-yl)methyl)-5-(1,3,5-trimethyl-1H-pyrazol-4-yl)-3,4-dihydroisoquinolin-1(2H)-one] | > 938
CCn1cc(-c2cc(Cn3cc4n(c3=N)CCC4)cc3c2CCN(Cc2cc(OC)ccn2)C3=O)c(C(F)(F)F)n1 [Example 56, 5-(1-Ethyl-3-(trifluoromethyl)-1H-pyrazol-4-yl)-7-((3-imino-6,7-dihydro-3H-pyrrolo[1,2-c]imidazol-2(5H)-yl)methyl)-2-((4-methoxypyridin-2-yl)methyl)-3,4-dihydroisoquinolin-1(2H)-one] | 870
COc1ccnc([C@H](C2CC2)N2CCc3c(cc(Cn4ccnc4C)cc3-c3cn(C)nc3C)C2=O)c1 [Example 203, (S)-2-(Cyclopropyl(4-methoxypyridin-2-yl)methyl)-5-(1,3-dimethyl-1H-pyrazol-4-yl)-7-((2-methyl-1H-imidazol-1-yl)methyl)-3,4-dihydroisoquinolin-1(2H)-one] | 52
Cc1nccn1Cc1ccc2c(c1)C(=O)N(Cc1cc(Cl)cc(Cl)c1)CC2 [Example 2, 2-(3,5-Dichlorobenzyl)-7-((2-methyl-1H-imidazol-1-yl)methyl)-3,4-dihydroisoquinolin-1(2H)-one] | > 938
Cn1cc(-c2cc(Cn3ccoc3=N)cc3c2CCN(Cc2cc(C4CC4)nn2C)C3=O)c(C(F)(F)F)n1 [Example 150, 2-((3-Cyclopropyl-1-methyl-1H-pyrazol-5-yl)methyl)-7-((2-iminooxazol-3(2H)-yl)methyl)-5-(1-methyl-3-(trifluoromethyl)-1H-pyrazol-4-yl)-3,4-dihydroisoquinolin-1(2H)-one] | < 50
Cn1ccn(Cc2cc3c(cc2F)CCN(Cc2ccc(Cl)c(Cl)c2)C3=O)c1=N [Example 26, 2-(3,4-Dichlorobenzyl)-6-fluoro-7-((2-imino-3-methyl-2,3-dihydro-1H-imidazol-1-yl)methyl)-3,4-dihydroisoquinolin-1(2H)-one] | > 938
Cc1nccn1Cc1cc2c(c(-c3cn(C)nc3C(F)(F)F)c1)CCN(CC1CCCOC1)C2=O (stereo not drawn) [Example 167, 7-((2-Methyl-1H-imidazol-1-yl)methyl)-5-(1-methyl-3-(trifluoromethyl)-1H-pyrazol-4-yl)-2-((tetrahydro-2H-pyran-3-yl)methyl)-3,4-dihydroisoquinolin-1(2H)-one] | 3020
Cc1nccn1Cc1cc2c(c(-c3cn(C)nc3C(F)(F)F)c1)CCN(Cc1ccc3c(c1)OCO3)C2=O [Example 170, 2-(Benzo[d][1,3]dioxol-5-ylmethyl)-7-((2-methyl-1H-imidazol-1-yl)methyl)-5-(1-methyl-3-(trifluoromethyl)-1H-pyrazol-4-yl)-3,4-dihydroisoquinolin-1(2H)-one] | 835
Cc1ccnc([C@H](C2CC2)N2CCc3c(cc(Cn4ccn(C)c4=N)cc3-c3ccc(F)cc3C)C2=O)c1 [Example 37, (S)-2-(Cyclopropyl(4-methylpyridin-2-yl)methyl)-5-(4-fluoro-2-methylphenyl)-7-((2-imino-3-methyl-2,3-dihydro-1H-imidazol-1-yl)methyl)-3,4-dihydroisoquinolin-1(2H)-one] | < 50
Cc1nccn1Cc1cc2c(c(-c3cn(C)nc3C(F)(F)F)c1)CCN(Cc1cc(Br)cc3c1OCC3)C2=O [Example 216, 2-((5-Bromo-2,3-dihydrobenzofuran-7-yl)methyl)-7-((2-methyl-1H-imidazol-1-yl)methyl)-5-(1-methyl-3-(trifluoromethyl)-1H-pyrazol-4-yl)-3,4-dihydroisoquinolin-1(2H)-one] | 56
COc1ccnc([C@H](C)N2CCc3c(cc(Cn4ccnc4C)cc3-c3c[nH]nc3C(F)(F)F)C2=O)c1 [Example 237, (S)-2-(1-(4-methoxypyridin-2-yl)ethyl)-7-((2-methyl-1H-imidazol-1-yl)methyl)-5-(3-(trifluoromethyl)-1H-pyrazol-4-yl)-3,4-dihydroisoquinolin-1(2H)-one] | < 50
